Key:
[1] = system: Bacillus megaterium SBUG 1152; experiment: agar diffusion test (Test System 1, antimicrobial effect); assay type: cell-based
Method: (§1) Test System 1 (Antimicrobial Effect)
(§2) The test germs Escherichia coli SBUG 1135 and Bacillus megaterium SBUG 1152 are drawn overnight (17 hours at 37° C.) in 5 ml nutrient medium II. The incubation is performed in a shaking incubator (INFORS AG CH 4103, Bottmingen, Switzerland) at a shaking frequency of 180 rpm.
(§3) After 17 h incubation time, Escherichia coli has reached a cell density of ca. 2.4×10^10 cells/ml and Bacillus megaterium a cell density of ca. 2.1×10^8 cells/ml.
(§4) The seeding of bacteria in agar is selected so that, dense, but not confluent individual colonies develop after the incubation.
Bacillus megaterium: 0.1 ml of non-diluted overnight culture (ÜN) in 10 ml nutrient agar corresponds to a cell count of 10^6.
(§5) The inoculated nutrient agar is set in sterile Petri dishes and left standing for a few minutes for drying.
(§6) The test substances are deposited in stepped quantities (10 μg, 50 μg, 100 μg) onto active ingredient carriers (sensi-discs). For this purpose, the test substances are dissolved in methanol or A. dest. according to their solubility. Each inoculated plate is fitted with 3 test sheets.
(§7) After a 20-hour incubation time at 37° C., the zones of inhibition around the individual test sheets could be measured. The diameter of the zone of inhibition is specified in mm.

B. subtilis AWD 166 = experiment: agar diffusion test (antimicrobial effect); assay type: cell-based, Bacillus subtilis
Method: as §4, §5, §6, §7

[2] = system: Escherichia coli SBUG 1135; experiment: agar diffusion test (Test System 1, antimicrobial effect); assay type: cell-based; set-up: key: r = resistant (no detectable zone of inhibition)
Method: as §1, §2, §3, §4
Escherichia coli: the ÜN is diluted 1:100 with physiological saline solution, of which 0.1 ml is converted into 10 ml nutrient agar. That corresponds to a cell count of 10^6.
as §5, §6, §7

[3] = system: Enterococcus faecalis 769; experiment: agar diffusion test (Test System II, multi-resistant germs); assay type: cell-based; set-up: key: r = resistant (no detectable zone of inhibition)
Method: as §6
(§8) Test System II (Effect Against Multi-Resistant Germs)
(§9) For this purpose, bacteria is cultivated on Müller-Hinton-Agar II plates.
(§10) With 1-1.5 ml physiological saline solution, a bacteria suspension of McFarland 0.5 (corresponds to a bacteria density of 150×10^6 germs) is produced. Then, with a sterile glass rod, a small drop of bacteria suspension is placed on the Müller-Hinton-Agar plate and coated in three layers (vertical, horizontal, and transverse). Thereafter, the sensi-discs with the novel semi-synthetic test substances are placed on top. The fitted plates are incubated for 18-20 hours at 37° C. After incubation, the diameters of the zones of inhibition are read as a measure for the antimicrobial activity of the novel semi-synthetic test substances.

[4] = system: Staphylococcus aureus 315; experiment: as above; assay type: cell-based; set-up: key: r = resistant (no detectable zone of inhibition)
Method: as §6, §8, §9, §10

E. faecalis 945 = experiment: as above; assay type: cell-based, Enterococcus faecalis; set-up: key: r = resistant (no detectable zone of inhibition)
Method: as §6, §8, §9, §10

S. aureus 33490 = experiment: as above; assay type: cell-based, Staphylococcus aureus; set-up: key: r = resistant (no detectable zone of inhibition)
Method: as §6, §8, §9, §10

S. aureus 34289 = experiment: as above; assay type: cell-based, Staphylococcus aureus; set-up: key: r = resistant (no detectable zone of inhibition)
Method: as §6, §8, §9, §10

S. aureus 36881 = experiment: as above; assay type: cell-based, Staphylococcus aureus; set-up: key: r = resistant (no detectable zone of inhibition)
Method: as §6, §8, §9, §10

S. aureus 39105 = experiment: as above; assay type: cell-based, Staphylococcus aureus; set-up: key: r = resistant (no detectable zone of inhibition)
Method: as §6, §8, §9, §10

S. aureus 520 = experiment: as above; assay type: cell-based, Staphylococcus aureus; set-up: key: r = resistant (no detectable zone of inhibition)
Method: as §6, §8, §9, §10

S. aureus 526 = experiment: as above; assay type: cell-based, Staphylococcus aureus; set-up: key: r = resistant (no detectable zone of inhibition)
Method: as §6, §8, §9, §10

[5] = system: S. aureus North Germany strain; experiment: as above; assay type: cell-based, Staphylococcus aureus; set-up: key: r = resistant (no detectable zone of inhibition)
Method: as §6, §8, §9, §10

S. aureus 38418 = experiment: as above; assay type: cell-based, Staphylococcus aureus
Method: as §6, §8, §9, §10

S. aureus ATCC 6538 = experiment: as above; assay type: cell-based, Staphylococcus aureus
Method: as §6, §8, §9, §10

S. epidermidis 1068 = experiment: as above; assay type: cell-based, Staphylococcus epidermidis; set-up: key: r = resistant (no detectable zone of inhibition)
Method: as §6, §8, §9, §10

S. epidermidis 1071 = experiment: as above; assay type: cell-based, Staphylococcus epidermidis; set-up: key: r = resistant (no detectable zone of inhibition)
Method: as §6, §8, §9, §10

S. epidermidis 563 = experiment: as above; assay type: cell-based, Staphylococcus epidermidis; set-up: key: r = resistant (no detectable zone of inhibition)
Method: as §6, §8, §9, §10

S. epidermidis 847 = experiment: as above; assay type: cell-based, Staphylococcus epidermidis; set-up: key: r = resistant (no detectable zone of inhibition)
Method: as §6, §8, §9, §10

S. epidermidis 125 = experiment: as above; assay type: cell-based, Staphylococcus epidermidis
Method: as §6, §8, §9, §10

Measured: Diameter of zone of inhibition

COC(=O)C1=C(NC(C(=O)NC2C(=O)N3C(C(=O)O)=C(C)CSC23)c2ccc(O)cc2)C(=O)C=CC1=O (stereo not drawn) [1c, 7-[2-(4-hydroxyphenyl)-2-(2-methoxycarbonyl-3,6-dioxocyclohexa-1,4-dienylamino)-acetylamino]-desacetoxycephalosporanic acid]
r: [2]; Quantity n 0.019 | [3]; Quantity n 0.019 | [3]; Quantity n 0.1 | [3]; Quantity n 0.19 | [4]; Quantity n 0.019 | [4]; Quantity n 0.1 | E. faecalis 945; Quantity n 0.019 | E. faecalis 945; Quantity n 0.1 | E. faecalis 945; Quantity n 0.19 | S. aureus 33490; Quantity n [μmol] 0.019 | S. aureus 34289; Quantity n [mol] 0.019 | S. aureus 34289; Quantity n [mol] 0.1 | S. aureus 34289; Quantity n [mol] 0.19 | S. aureus 36881; Quantity n 0.019 | S. aureus 36881; Quantity n 0.1 | S. aureus 39105; Quantity n 0.019 | S. aureus 39105; Quantity n 0.1 | S. aureus 520; Quantity n [mol] 0.019 | S. aureus 520; Quantity n [mol] 0.1 | S. aureus 520; Quantity n [mol] 0.19 | S. aureus 526; Quantity n 0.019 | S. aureus 526; Quantity n 0.1 | S. aureus 526; Quantity n 0.19 | [5]; Quantity n 0.019 | S. epidermidis 1068; Quantity n 0.019 | S. epidermidis 1071; Quantity n 0.019 | S. epidermidis 563; Quantity n 0.019 | S. epidermidis 847; Quantity n [mol] 0.019
28 mm: S. aureus 38418; Quantity n [mol] 0.19 | S. epidermidis 125; Quantity n 0.19
32 mm: [1]; Quantity n 0.19 | B. subtilis AWD 166; Quantity n 0.19
22 mm: [1]; Quantity n 0.019 | B. subtilis AWD 166; Quantity n 0.019 | S. aureus 38418; Quantity n [mol] 0.1
30 mm: [1]; Quantity n 0.1 | B. subtilis AWD 166; Quantity n 0.1 | S. aureus ATCC 6538; Quantity n 0.19
26 mm: S. aureus ATCC 6538; Quantity n 0.1
10 mm: [5]; Quantity n 0.1 | S. aureus 38418; Quantity n [mol] 0.019
24 mm: S. epidermidis 125; Quantity n 0.1
18 mm: [2]; Quantity n 0.19 | S. aureus ATCC 6538; Quantity n 0.019 | S. epidermidis 847; Quantity n [mol] 0.19
12 mm: [4]; Quantity n 0.19 | S. aureus 39105; Quantity n 0.19 | S. epidermidis 125; Quantity n 0.019
14 mm: [2]; Quantity n 0.1 | S. aureus 33490; Quantity n [μmol] 0.1 | S. aureus 36881; Quantity n 0.19 | [5]; Quantity n 0.19 | S. epidermidis 1068; Quantity n 0.1 | S. epidermidis 1071; Quantity n 0.1 | S. epidermidis 563; Quantity n 0.1 | S. epidermidis 847; Quantity n [mol] 0.1
20 mm: S. aureus 33490; Quantity n [μmol] 0.19 | S. epidermidis 1068; Quantity n 0.19 | S. epidermidis 1071; Quantity n 0.19 | S. epidermidis 563; Quantity n 0.19
